The values that follow come from patent US11135252B2, “Probiotic therapies for developmental disorders and other neurological disorders” (Baylor College of Medicine, priority 2016, dated 2021).

One assay concerns GF mice. Put plainly: Three-chamber social test in germ-free mice treated with L. reuteri. Type of assay: in vivo. How it is done: C57Bl6/J mice were obtained from Jackson Laboratories (#000-664) and were kept on a 12 h light/dark cycle and had access to food and water ad libitum. Females were placed on either a regular diet (RD) consisting of 13.4% kcal from fat, 30% kcal from protein, and 57% kcal from carbohydrates (Lab Diets, #5001) or high fat diet (HFD) consisting of 60% kcal from fat, 20% kcal from protein, and […] kcal from carbohydrates (Research Diets, #D12492). Maternal weight was measured weekly. Maternal total and fat mass were measured using an mq7.5 Minispec NMR body composition analyzer. After eight weeks on diet, females were paired with C57B16/J adult males to produce subject offspring. Resulting offspring were weaned at three weeks of age and all placed on RD, regardless of maternal diet (MRD or MHFD). Germ-free mice (C57B16/J) were maintained in a flexible isolator fed with HEPA-filtered air and provided with irradiated food and water. Germ-free offspring were weaned at four weeks of age. All behavioral tests were performed on 7-12-week-old male mice.
Crawley's three-chamber test for sociability and preference for social novelty was performed as described (Silverman et al., 2010). In brief, the mouse first experienced a 10-minute period of habituation during which it was allowed to freely explore a 60×40×23 cm Plexiglass arena divided into three equally sized, interconnected chambers (Left, Center, Right). Sociability was measured during a second ten-minute period in which the subject could interact either with an empty wire cup (Empty) or a wire cup containing an age and sex-matched stranger conspecific (Mouse 1). Time spent interacting (sniffing, crawling upon) with either the empty cup or the stranger mouse contained in the other cup as well as time spent in each chamber was recorded using the AnyMaze software, by independent observers. […] Time spent in each chamber as well as time spent interacting with either Mouse 1 or Mouse 2 was recorded using the automated AnyMaze software by independent observers. […]

Assay [1] has as its system oxytocin immunoreactivity in the PVN. Put plainly: Oxytocin immunofluorescence in the PVN of MHFD offspring. The conditions noted are these: for oxytocin-positive cell number in the PVN: relative to heat-killed L. reuteri / control treatment. The class given is in vivo, mice. How it is done: Lactobacillus reuteri MM4-1A (ATCC-PTA-6475) and Lactobacillus johnsonii (ATCC 33200) were cultured anaerobically in MRS broth in a 90% N2, 5% CO2, 5% H2 environment. L. reuteri was heat-killed by keeping the bacteria at 80° C. for 20 minutes (Wang et al., 2010). Bacterial viability was assessed by plating and the efficacy of the heat-kill procedure was confirmed by the absence of colony growth following plating. Cultures were centrifuged, washed, and resuspended in anaerobic solution (PBS) and frozen at −80° C. until use. PBS, live or heat-killed L. reuteri were added to the drinking water, which was changed daily to minimize dosage variability. Whereas the experimental group received live bacteria, one control group received identically prepared cultures of heat-killed bacteria. A second group of control mice received water treated with PBS alone. Live and heat-killed L. reuteri were supplied at a dosage of 1×10^8 organisms/mouse/day continuously in drinking water. Mice consumed the treated water ad libitum over the treatment period. The treated drinking water for each group was replaced daily two hours prior to the onset of the dark cycle to minimize variation in microbial exposure. Behavioral assays were initiated after 4-weeks of L. reuteri or control treatment. The protocol of the L. johnsonii preparation and administration matched the L. reuteri protocol. Fecal samples for sequencing and tissue used in the immunofluorescence studies were collected at the end of the treatment.
Mice were deeply anesthetized by inhalation of isoflurane and perfused transcardially with 10 ml 0.9% phosphate-buffered saline followed by 30 ml 4% paraformaldehyde in 0.1M phosphate buffer (PFA). […] Fluorescence intensity was measured in ImageJ (NIH) by selecting regions of interest (Oxytocin- and NeuN-positive hypothalamic cell bodies). Hypothalamic oxytocin-expressing neuronal population and NeuN+ cell number was assessed in ImageJ using the following operational sequence: (1) open image file, (2) subtract background, (3) adjust threshold, (4) convert to mask, (5) watershed, (6) analyze particles. […]

In the case of “Lactobacillus reuteri MM4-1A (ATCC-PTA-6475) [L. reuteri]”, in the assay with GF mice (L. reuteri in drinking water), the sociability entry is given as “reverses the deficient sociability”. The social novelty result in the assay on GF mice (L. reuteri in drinking water) was “reverses”. In the assay on GF mice (L. reuteri treatment), the social behavior deficits entry was “sufficient to restore the social behavior deficits”. Further, the “oxytocin immunofluorescence intensity in the PVN” value in assay [1] (relative to heat-killed L. reuteri) is listed as “significantly increased”. The “oxytocin-positive cell number in the PVN” value in assay [1] is recorded as “higher than in control-treated MHFD offspring”; in assay [1] (listed as live L. reuteri) it was “significantly increased”.
